Entries after “also recorded” stand apart in the source; their conditions may differ. Where two headings read alike, the source gives them in different places. Ends that are not written are not given here.

Assay [1] is classed as in vivo, NIH/Swiss mice. The note with it: for acute food intake, in words: IP at t=0, 30, 60, 120 min.
Protocol: Peptide was injected IP at t=0.
Peptide was injected IP at t=0. […] Peptide was injected IP at t=0.
The conditions of assay [2]: cited from earlier work; for EC(50) inhibition of gastric emptying: subcutaneous, conscious rats, rat weight ~200 g; for inhibition of gastric emptying, in words: at doses of 100 μg.
Assay [3] is described as follows: Intravenous glucose tolerance test (IVGTT assay). It counts as in vivo, rats. The conditions noted are these: 100 pmol/kg/min infusion; for insulinotropic response to an intravenous glucose challenge: anesthetized HSD male rats. How it is done:
All three analogs produced a significant lowering of the glucose excursion in response to the glucose challenge (data not shown). As described, fed, isoflurane anesthetized HSD male rats were intubated and cannulated via femoral artery and vein and allowed to stabilize for 1 hour. […] At t=0, an i.v. bolus of 5.7 mmol/kg D-glucose was administered over 2 minutes. Samples for glucose measurement and insulin concentrations were taken at various time points before and after (0 to 90 minutes) glucose infusion.

Assay [4] is described as follows: Basal glucose lowering in 2-hour fasted NIH/Swiss mice. The conditions noted are these: for basal glucose lowering (% maximal decrease): mouse, in vivo. Format: in vivo. How it is done: (§1) In FIG. 3A, bars represent mean±sd, n=6-10. Peptide was injected IP at t=−5 into overnight-fasted NIH/Swiss mice. Gavage (1.5 g/kg) was given at t=0. Sample was taken at t=30 min. […] In FIG. 3B, points represent mean±sem, n=8-15. Peptide was injected IP at t=0 immediately following baseline sample into 2-hour fasted NIH/Swiss mice. Samples were taken at t=60, 120, and 180 minutes. […] Compound G has both an N-terminal modification providing DPP-IV resitance and a C-terminal Trp-cage shield.
Points represent mean±sem. Peptide was injected IP at t=0 immediately following baseline sample into 2-hour fasted NIH/Swiss mice. Samples were taken at t=60, 120, 180 and 240 minutes.
FIGS. 8A and 8b provide a result of one such study. Points represent mean±sem. Peptide was injected IP at t=0 immediately following baseline sample into 2-hour fasted NIH/Swiss mice. Samples were taken at t=60, 120, 180 and 240 minutes.

In a further assay the target is relevant receptors. The assay is described as follows: Cyclase, table of GIP/amylin-sCT hybrids. Format: biochemical. The conditions noted are these: receptor and unit inferred.
In assay [5] the test system is cardiomyocyte Gs-coupled receptors. The experiment in a line: cAMP production in isolated neonatal cardiomyocytes (HTRF). It counts as cell-based, rat. (In general: Cyclic AMP is a second messenger, typically raised through Gs and lowered through Gi signalling.)
Protocol: Activation of cardiomyocyte Gs- and Gi-coupled receptors was determined as a measure of cAMP production.
Cell Isolation. Neonatal cardiomyocytes were isolated using a commercially available system. […] Sprague Dawley neonatal rats (1-2 days old) were decapitated and the beating heart dissected out into digestion buffer (Cellutron D1 buffer) to dissociate cells. […] The resuspended cells incubated in buffer (Cellutron D3 buffer) for sufficient time to allow optimal dispersion and minimize the need for pipetting to break up clumps. Cells released from the first 2 digestions were discarded since a significant portion of these is red blood cells. Resuspended cells were filtered and allowed to pre-plate for 1 hour on plastic in an incubator in NS media (Cellutron, NJ) in order to remove fibroblasts. After 1 hour of pre-plating, floating cells are removed and the flask rinsed with NS media. The floating cells and the cells in the rinse media were combined and counted. Residual red blood cells, which are smaller that the cardiac myocytes, were not counted.
Cell Plating. […] At Day 1, the NS media was replaced with fresh NS media.
cAMP Assay. […] Dose response was determined.
For Gs assays the positive control was 10 uM forskolin and negative control was buffer. For Gi assays the positive control was buffer and the negative control was 10 uM forskolin.
Assay [6] is described as follows: Body weight in diet-induced-obesity (DIO) mice. Format: in vivo, C57BL/6 mice. The conditions noted are these: for body weight change in diet-induced-obese mice: infused via osmotic pump for 2 weeks.
The nature of assay [7]: Glucose lowering in diabetic db/db mice. The note with it: IP; GIP at a 10 fold higher dose. It counts as in vivo.
Protocol: Peptide was injected IP at t=0 immediately following baseline sample into 2-hour fasted db/db mice.
The nature of assay [8]: Circulatory system effects in conscious rats by telemetry. Format: in vivo. The conditions noted are these: 80 nmol/kg intravenous. How it is done:
The experiments were performed during the light cycle. Telemetry allows for real-time hemodynamic readings including arterial blood pressure, heart rate and arterial dP/dt, via an implanted radio transmitter in conscious, non-anesthetized, unrestrained rats. […] Remote intravenous dosing was achieved through in-dwelling vascular access ports (Access Technologies (Skokie, Ill.). The port is secured to the underlying muscle just below the skin between the scapulae. The catheter resides in the jugular vein. Data were collected for up to 60 minutes following injection.

A short description of assay [9]: Oral glucose tolerance test (OGTT). It counts as in vivo, NIH/Swiss mice. The note with it: decrease in the OGTT assay. Here is the method:
as §1
In FIG. 13B bars represent mean+/−sd. Peptide was injected IP at t=−5 minutes into 4-hour fasted NIH/Swiss female mice. Gavage (1.5 g/kg) was given at t=0. […] In FIG. 17 points represent mean+/−sem. Peptide was injected IP at t=) immediatley following baseline sample into 2-hour fasted NIH/Swiss mice. Samples were taken at t=60, t=120 and t=180. […] In one embodiment for each of these GIP hybrids a Gly linker is used, e.g. GlyGlyGly.

On to “HGEGAFTSDLSKQLEEEAVRLFIEFLKN-NH2 [Exendin-4 (1-28) [Ala5, Leu14, Phe25]]”, for which the “60 min ED50” value in [1] (mouse food intake at 60 min) is reported as 13 nmol/kg.

In the case of “Rat calcitonin: rat calcitonin, peptide compared for inhibition of gastric emptying (CGNLSTCMLGTYTQDLNKFHTFPQTSIGVGAP; ends and bridges not checked; cysteine pairing not given here; UniProt P01257 85-116, looked up)”, the “EC(50) inhibition of gastric emptying” value in assay [2] is 0.64 µg.

With “vasoactive intestinal peptide: vasoactive intestinal peptide (VIP) (HSDAVFTDNYTRLRKQMAVKKYLNSILN; ends and bridges not checked; UniProt P01282 125-152, looked up)”, the “inhibition of gastric emptying, in words” value in assay [2] is “weakly active or inactive”.

For “Y(D-Ala)EGTFISDYSIAMDKIHQQDFVNWLLAQKGKKNDWKHNITQ-OH [Compound 0601GIP4042]”, the “insulinotropic response to an intravenous glucose challenge” value (“insulinotropic response” below) in [3] is listed as “significant enhancement of the insulinotropic response”. In addition, the “basal glucose lowering (% maximal decrease)” value in [4] is listed as −11%.

On to “YAEGTFISDYSIAMDKIHQQDFVNWLLAQKPSSGAPPPS [Compound 1]”, for which the EC50 – broadly, the concentration at which the effect is half-maximal – on relevant receptors came out at 0.519 µM.

As for glucagon: peptide hormone glucagon, the “inhibition of gastric emptying, in words” value in assay [2] is “weakly active or inactive”.

Turning to “KCNTATCATQRLANFLVRSSNNLGPVLPPTNVGSNTY-NH2 [Rat Amylin]”, in [1], the “acute food intake, in words” value is recorded as “significant decrease in food intake within 30 min”. Also, the “60 min ED50” value in assay [1] (mouse food intake at 60 min) was 9 nmol/kg. Besides, in assay [2], the “EC(50) inhibition of gastric emptying” value was 0.18 µg.

On to “HAEGTFTSDVSSYLEGQAAKEFIAWLVKGR-NH2 [GLP-1]”, for which the “EC(50) inhibition of gastric emptying” value in assay [2] was 1.82 µg. Further, the “cAMP activity in cardiomyocytes, in words” value in assay [5] is listed as “very low to no significant activity”.

Take “KCNTATCATQRLANFLVHSSNNFGAILSSTNVGSNTY [Human amylin]”: the “EC(50) inhibition of gastric emptying” value in assay [2] is 0.15 µg.

On to “Rat CGRP: rat calcitonin gene related peptide (SCNTATCVTHRLAGLLSRSGGVVKDNFVPTNVGSEAF; ends and bridges not checked; cysteine pairing not given here; UniProt P01256 83-119, looked up)”, for which, in assay [2], the “EC(50) inhibition of gastric emptying” value is 1.62 µg.

Regarding “CSNLSTCVLGKLSQELHKLQTYPRTNTGSGTP [Salmon calcitonin]”, the “EC(50) inhibition of gastric emptying” value in [2] was 0.19 µg.

For Secretin: gut peptide hormone secretin, the “EC(50) inhibition of gastric emptying” value in [2] is 1.87 µg.

On to neuropeptide Y: neuropeptide Y, for which the “inhibition of gastric emptying, in words” value in assay [2] was “weakly active or inactive”.

Consider “YaEGTFISDYSIAMDKIHQQDFVNWLLAQKPSSGAPPPS-NH2 [Compound 0601GIP3794]”, for which, in assay [3], the “insulin levels prior to the glucose challenge” value was “significant rise in insulin levels” and the “insulinotropic response” value was “significant enhancement of the insulinotropic response”. In assay [6], the “body weight change in diet-induced-obese mice” value is given as “without a concomitant reduction in body weight”. The body composition entry in assay [6] (mouse, in vivo) was “slight decrease in percentage body fat with an increase in body protein”. For the same substance, in assay [7], the “glucose lowering in diabetic db/db mice, in words” value is “pronounced and long-acting effect in lowering glucose”. Also, in [4] (IP, samples 60-240 min, listed as Compound G), the “glucose lowering in normal NIH/Swiss mice, in words” value was “significantly more efficacious than full length GIP; also recorded: gradually increasing activity that peaks at t=120 min”. In addition, the “basal glucose lowering (% maximal decrease)” value in assay [4] was −20%. Further, the “acute food intake, in words” value in assay [1] is given as “did not acutely inhibit food intake”. In addition, in assay [8], the dP/dt entry is recorded as “increased dP/dt similarly”; the heart rate entry is “transient relative to GIP”; the mean arterial pressure result is “decreased mean arterial pressure”; the “systolic and diastolic pressures” value was “sustained lowering of systolic and diastolic pressures”. The EC50 in assay [5] (experiment of FIGS. 18A/18B, read-out: EC50, cAMP production in cardiomyocytes) came to 0.0117 µM. Further, the EC50 in [5] (from three independent experiments, read-out: EC50, cardiomyocyte Gs-coupled receptor activation) is 0.0298 µM. Besides, the OGTT response in assay [9] is reported as −21%.

On to “YAEGTFISDYSIAMDKIHQQDFVNWLLAQKGKKNDWKHNITQ-OH [GIP]”, for which, in assay [3], the “insulin levels prior to the glucose challenge” value is listed as “significant rise in insulin levels” and the “insulinotropic response” value is recorded as “significant enhancement of the insulinotropic response”. Further, in assay [6], the “body weight change in diet-induced-obese mice” value is on record as “had no effect on body weight change”. For the same substance, the “glucose lowering in diabetic db/db mice, in words” value in assay [7] is “modest and wanes over time”. Further, the “acute food intake, in words” value in assay [1] is on record as “did not acutely inhibit food intake”. The “inhibition of gastric emptying, in words” value in assay [2] was “weakly active or inactive”. Also, in [8], the dP/dt entry is “increased dP/dt similarly”, the heart rate result is listed as “chronotropic (heart rate elevating) effect” and the mean arterial pressure result is given as “had no effect”. In assay [9], the OGTT response is listed as −10%.

“adrenomedullin: amylin family peptide hormone adrenomedullin (YRQSMNNFQGLRSFGCRFGTCTVQKLAHQIYQFTDKDKDNVAPRSKISPQGY; ends and bridges not checked; cysteine pairing not given here; UniProt P35318 95-146, looked up)”: in assay [2], the “inhibition of gastric emptying, in words” value is “weakly active or inactive”.

In the case of “PACAP38: pituitary adenylate cyclase activating peptide (PACAP38) (HSDGIFTDSYSRYRKQMAVKKYLAAVLGKRYKQRVKNK-NH2; ends and bridges not checked; UniProt P18509 132-169, looked up)”, the “inhibition of gastric emptying, in words” value in [2] is “weakly active or inactive”.

Regarding DY(SO3) MGWMDF-NH2 [CCK-8], the “60 min ED50” value in assay [1] (mouse, in vivo) stood at 26 nmol/kg. Moreover, in assay [2], the “EC(50) inhibition of gastric emptying” value is 2.93 µg.

Take “Gastrin releasing peptide: gastrin releasing peptide (VPLPAGGGTVLTKMYPRGNHWAVGHLM-NH2; ends and bridges not checked; UniProt P07492 24-50, looked up)”: in [2], the “EC(50) inhibition of gastric emptying” value is 28.5 µg.

Regarding “insulin: insulin (tested with plasma glucose maintained constant)”, the “inhibition of gastric emptying, in words” value in assay [2] is “weakly active or inactive”.

The values are drawn from US9133260B2 (priority 2005, dated 2015).
